The source of these data is US20230346790A1, “PHARMACEUTICAL COMPOSITION FOR PREVENTION OR TREATMENT OF CANCERS ASSOCIATED WITH KRAS MUTATION” (WELLMARKER BIO CO., LTD., priority 2020, published 2023).

In experiment [1] the test system is cetuximab-resistant cell line R2 (LIM1215, KRAS G13D, RON Δ155). In words: Cell death rate by trypan blue staining and cell counting, cetuximab-resistant line. It is filed as cell-based. Particulars: cetuximab-resistant cell line R2, 1 µM, 48 hours. As to the method: (§1) The parent cell line LIM1215 and the cetuximab-resistant cell line R2 were counted, and each of them was seeded at 3×10^5 cells in a 60 mm dish. After 24 hours, treatment with 1 µM of each of the compounds of Example 1, Example 2, Example 3, Example 4, Example 5, positive control 1 (BMS-777607), positive control 2 (crizotinib), and positive control 3 (cabozantinib) was performed. After 48 hours had elapsed since the treatment, the cells were collected, resuspended in 1x phosphate buffered saline (PBS), and stained with a trypan blue solution. The stained cells were counted using a hemocytometer. Cell counting was performed in duplicate, and the mean and the standard deviation were calculated.

The test system of experiment [2] is cell line R2 exhibiting secondary resistance to cetuximab, overexpressing β-catenin. In words: Cell death induction after β-catenin overexpression, trypan blue exclusion assay. Format: cell-based. Particulars: 48 hours. As to the method: (§2) Subsequently, all cells were collected when 48 hours had elapsed. Cell death induction efficacy was compared and analyzed using a trypan blue exclusion assay. In addition, using these samples, changes in expression of respective proteins were compared and analyzed with the western blotting method.

The test system of experiment [3] is pTyr-mRON, p-ERK, β-catenin, c-myc, cleaved caspase-3 in cell line R2. In words: Western blotting of protein expression after empty vector or β-catenin transfection. Format: cell-based. As to the method: The parent cell line LIM1215 and the cetuximab-resistant cell line R2 were counted. 2×10^6 cells of each cell line were washed with 1x PBS once and then lysed with 1x RIPA lysis buffer. The cell lysate was reacted on ice for 20 minutes, and then centrifuged at 13,000 rpm for 20 minutes at 4° C. to obtain a supernatant. After proteins in the obtained supernatant were quantified using Bradford method, 20 µg of the protein was subjected to sodium-polyacrylamide gel electrophoresis (SDS-PAGE).
Transfer was performed using polyvinylidene fluoride (PVDF) membrane. Then, each of phospho-RON antibody (MyBiosource, Inc., cat# MBS462024; 1:500), RON antibody (Santa Cruz Biotechnology, cat# sc-374626; 1:1,000), phospho-EGFR antibody (Cell Signaling Technology, Inc., cat# 2234; 1:1,000), EGFR antibody (Cell Signaling Technology, Inc., cat# 2232; 1:1,000), phospho-Akt antibody (Cell Signaling Technology, Inc., cat# 4060; 1:1,000), Akt antibody (Cell Signaling Technology, Inc., cat# 9272; 1:1,000), phospho-ERK antibody (Cell Signaling Technology, Inc., cat# 4370; 1:1,000), ERK antibody (Cell Signaling Technology, Inc., cat# 4695; 1:1,000), phospho-β-catenin antibody (Cell Signaling Technology, Inc., cat# 9561; 1:1,000), β-catenin antibody (Cell Signaling Technology, Inc., cat# 8480; 1:1,000), c-myc antibody (Santa Cruz Biotechnology, cat# sc-40; 1:500), and β-actin antibody (Santa Cruz Biotechnology, cat# sc-47778; 1:1,000) was diluted in 5% skim milk tris buffered saline with Tween 20 (TBS-T) solution and reacted at 4° C. overnight.
After completion of the reaction, washing with the TBS-T solution was performed three times for 10 minutes each. Subsequently, anti-mouse-HRP or anti-rabbit-HRP (Cell Signaling Technology, Inc., cat# 7074 or 7076; 1:2,000) was diluted in the 5% skim milk TBS-T solution, and then reacted at room temperature for 2 hours. Then, washing with the TBS-T solution was performed three times for 10 minutes each, and then development was performed using an ECL solution (GE Healthcare, cat# RPN2108).
as §2

For experiment [4], the system named is cell line R2 exhibiting secondary resistance to cetuximab (LIM1215, KRAS G13D). The experiment is described as follows: Tumor growth inhibition in mice transplanted with cetuximab-resistant cell line R2. It is filed as in vivo, BALB/c nude mice. Particulars: R2 xenograft mice. The method, then:
5-Week-old female BALB/c nude mice were purchased and acclimatized for 1 week. […] The compound of Example 1 was orally administered when the tumor reached a size of about 100 mm^3. The compound of Example 1 was administered once a day for 2 weeks, and tumor size and body weight were measured twice a week.
(§3) After completion of the 4-week experiment, the experimental animals were euthanized, and then the tumors were extracted and weighed. In addition, with respect to the tumor tissues, changes in expressions of pTyr-mRON, mRON, β-catenin, and cleaved caspase-3 were analyzed with immunohistochemical staining.

Experiment [5] has as its system pTyr-mRON, mRON, β-catenin, cleaved caspase-3 in tumor tissues. The experiment is described as follows: Immunohistochemical staining of extracted tumor tissues. Format: in vivo, BALB/c nude mice. Particulars: R2 xenograft. The method, then: as §3
Another experiment concerns parent cell line LIM1215. In words: Cell death rate by trypan blue staining and cell counting, cetuximab-sensitive parent line. It is filed as cell-based. Particulars: parent cell line LIM1215, 1 µM, 48 hours. The method, then: as §1
Setting [6] is: cell line R2, β-catenin overexpressed.
Where [7] appears, read: cell line R2 transfected with the empty vector.

Molecules are shown by their SMILES. Entries after “also recorded” stand apart in the source; their conditions may differ.

`CCOc1ccn(-c2ccc(F)cc2)c(=O)c1C(=O)Nc1ccc(Oc2ccnc3cc(-c4ccc(CN5CCOCC5)cn4)sc23)c(F)c1.Cl` [Example 1, 4-Ethoxy-N-[3-Fluoro-4-({2-[5-(Morpholinomethyl)Pyridine-2-yl]Thieno[3,2-b]Pyridine-7-yl}Oxy)Phenyl]-1-(4-Fluorophenyl)-2-Oxo-1,2-Dihydropyridine-3-Carboxamide Hydrochloride]: in experiment [1] (Hydrochloride), the cell death rate result was “high cell death rate; also recorded: cell death was effectively induced”. Further, the “cell death induction efficacy” value in experiment [2] is reported as “reduced”. In experiment [3] (cell line R2, regardless of β-catenin, western blotting), the “expression of pTyr-mRON” value was “decreased”. For the same compound, in experiment [3] (setting [6]), the expression of c-myc result is “increased again”, the “expression of cleaved caspase-3” value is recorded as “decreased”, the “expression of p-ERK” value is given as “increased again” and the “expression of β-catenin” value is on record as “increased again”. Moreover, in experiment [3] (setting [7]), the expression of c-myc result is “decreased”, the “expression of p-ERK” value was “decreased” and the “expression of β-catenin” value is “decreased”. Further, in experiment [4] (15 mg/kg, oral once a day), the “Tumor growth inhibition (TGI, %)” value turned out to be 62.3±4.5%. Besides, in experiment [4] (small dose), the “tumor size inhibition effect as compared with cetuximab” value is listed as “remarkably excellent tumor size inhibition effect”. In experiment [5], the “expression of cleaved caspase-3 in tumor tissue” value is on record as “increased”, the “expression of pTyr-mRON in tumor tissue” value is “decreased” and the “expression of β-catenin in tumor tissue” value is recorded as “decreased”.

Turning to `CCOc1ccn(-c2ccccc2)c(=O)c1C(=O)Nc1ccc(Oc2ccnc3cc(-c4ccc(CNCCOC)cn4)sc23)c(F)c1.Cl` [Example 2, 4-Ethoxy-N-(3-Fluoro-4-{[2-(5-{[(2-Methoxyethyl)Amino]Methyl}Pyridine-2-yl)Thieno[3,2-b]Pyridine-7-yl]Oxy}Phenyl)-2-Oxo-1-Phenyl-1,2-Dihydropyridine-3-Carboxamide Hydrochloride], the cell death rate entry in experiment [1] (Hydrochloride) is on record as “cell death was effectively induced”.

Turning to `CCOc1ccn(-c2ccccc2)c(=O)c1C(=O)Nc1ccc(Oc2ccnc3cc(-c4ccc(CN5CCN(C)CC5)cn4)sc23)c(F)c1.Cl` [Example 3, 4-Ethoxy-N-{3-Fluoro-4-[(2-{5-[(4-Methylpiperazin-1-yl)Methyl]Pyridin-2-yl}Thieno[3,2-b]Pyridin-7-yl)Oxy]Phenyl}-2-Oxo-1-Phenyl-1,2-Dihydropyridine-3-Carboxamide Hydrochloride], the cell death rate result in experiment [1] (Hydrochloride) is recorded as “cell death was effectively induced”.

In the case of `COc1cc2c(Oc3ccc(NC(=O)c4c5c(cn(-c6ccc(F)cc6)c4=O)CCO5)cc3F)ccnc2cc1OCCN1CCOCC1` [Example 4, N-(3-Fluoro-4-((6-Methoxy-7-(2-Morpholinoethoxy)Quinolin-4-yl)Oxy)Phenyl)-5-(4-Fluorophenyl)-6-Oxo-2,3,5,6-Tetrahydrofuro[3,2-c]Pyridine-7-Carboxamide], the cell death rate result in experiment [1] is on record as “cell death was effectively induced”.

Consider `COc1cc2c(Oc3ccc(NC(=O)c4c5c(cn(-c6ccc(F)cc6)c4=O)CCO5)cc3F)ccnc2cc1OCCCN1CC(C#N)C1` [Example 5, N-(4-((7-(3-(3-Cyanoazetidine-1-yl)Propoxy)-6-Methoxyquinoline-4-yl)Oxy)-3-Fluorophenyl)-5-(4-Fluorophenyl)-6-Oxo-2,3,5,6-Tetrahydrofuro[3,2-c]Pyridine-7-Carboxamide], for which the cell death rate entry in experiment [1] is listed as “cell death was effectively induced”.

Regarding `CCOc1ccn(-c2ccc(F)cc2)c(=O)c1C(=O)Nc1ccc(Oc2ccnc(N)c2Cl)c(F)c1` [positive control 1, reference compound], the cell death rate entry (in the experiment on parent cell line LIM1215; in experiment [1]) was “cell death was not induced” in each case.

For `C[C@@H](Oc1cc(-c2cnn(C3CCNCC3)c2)cnc1N)c1c(Cl)ccc(F)c1Cl` [positive control 2, reference compound], the cell death rate entry in the experiment on parent cell line LIM1215 is recorded as “increased cell death rate”; in experiment [1], “cell death was not induced”.
